The test system of data set [1] is hypoxia inducible factor-1α (HIF-1α). Kind of data set: HIF-1α expression in LPS-challenged mice. The class given is in vivo. As to conditions: FIG. 9A, 9C; pre-treatment before LPS. The protocol: (§1) The plant components or the drugs were all injected an hour before administration of LPS. Another animal group was only treated with 25 mg/kg dLGG (dLGG 25 only). All groups were sacrificed after 24 hours and blood samples were collected by retro-orbital bleeding before scarification of mice and organ tissues were collected immediately.

The next data set concerns B16 melanoma cells. Kind of data set: Depigmentation assay in B16 melanoma cells. The class given is cell-based. As to conditions: FIG. 10B; 45 μM, vs vehicle control. The protocol:
B16 melanoma cell line was obtained from ATCC (Manassas, Va.) and grown in RPMI medium 1640 (Gibco/BRL) supplemented with 10% heat-inactivated fetal bovine serum, 100 unit/mL penicillin and 100 μg/mL streptomycin, at 37° C. in a humidified 5% CO2 incubator.
B16 melanoma cell line was plated on to 10 cm culture dishes at an initial density of 1×10^5 cells dish^−1 and then cultured under the same condition described above. After 12 hours of seeding, the cells were treated by vehicle DMSO, kojic acid (KA), ethyl acetate (EA) fractions of CR's water and ethanolic extractions (Hou et al., 2007) for 72 hours. These cells were harvested by centrifuge and visually evaluated the color of these cell pellets. In another experiment, depigmentation effect of the single compound dLGG was observed and evaluated at different time points with the same procedure.

In the next data set the test system is tyrosinase. In words: Western blot of tyrosinase expression in B16 melanoma cells. The class given is cell-based. As to conditions: FIG. 10C, 45 μM dLGG. The procedure: (§2) The cellular proteins were produced according to previously published method (Chiang et al., 2005). Protein content was measured by Bradford method (Bio-Rad).
(§3) Molecular mechanism of dLGG depigmentation effect was further studied. Western blotting assay was preceded for testing the effect of dLGG on tyrosinase and MITF expression.
A general note: In western blotting, separated proteins are transferred to a membrane and probed.

Data set [2] in a line: dLGG only treatment of mice without LPS challenge. The format is in vivo. Conditions: dLGG 25 mg/kg only, no LPS, 24 hours. The procedure: as §1
Moreover, one group of mice was treated with dLGG (25 mg/kg) without LPS challenge. All the mice were sacrificed after 24 hours. Mice sera were collected to measure and compare the concentration of IL-6 and TNF-α, and the levels of AST and ALT.

A further data set deals with MITF. In words: Western blot of MITF expression in B16 melanoma cells. The format is cell-based. Conditions: FIG. 10C, 45 μM dLGG. The protocol:
as §2, §3

The next data set has as its system PPAR-δ. In words: PPAR-δ expression in LPS-challenged mice. The format is in vivo. Conditions: FIG. 9B, 9D; pre-treatment before LPS. The protocol:
as §1

For another data set, the system named is LPS-challenged mice. Kind of data set: LPS-induced acute inflammation and sepsis in mice. The class given is in vivo. The protocol:
as §1
(§4) Liver, lung and kidney tissues were fixed in 10% buffered formalin then it were embedded into paraffin. The paraffin-embedded tissues were sliced (8-μm) and stained by hematoxylin and eosin (H&E). Besides, sections of paraffin-embedded liver and lung (4-μm for thickness) were heat immobilized and deparaffinized by use of xylene and rehydrated in a graded series of ethanol with a final wash in distilled water, and finally soaked into decloaking chamber (Biocare Medical) containing Target Retrieval Solution (DakoCytomation) for antigen retrieval.
Immunohistochemistry with liver, lung and kidney tissues were done by incubating the samples into F4/80 primary antibody for overnight respectively. After subsequent washing, each of the samples was incubated using florescent-labeled secondary antibody. Florescent images of the macrophage cell infiltration (positive F4/80 stained cell) were captured by AxioVision software (Carl Zeiss MicroImaging, Inc.) and then analyzed.
(§5) Blood samples of tested mice were centrifuged under 4° C., 1400× g for 15 minutes to separate serum from blood. Commercial kit purchased from Randox Laboratories (UK) was used to determine the activity of aspartate aminotransferase (AST) and alanine aminotransferase (ALT) in serum supernatants.
Serum levels of interleukin (IL-6) and tumor necrosis factor-alpha (TNF-α) were determined using a commercial kit from eBioscience.

The test system of data set [3] is LPS/D-GaIN-challenged mice. In words: LPS/D-GaIN-induced acute fulminant hepatitis in mice. The class given is in vivo. The procedure: The hepatoprotective effect in live body of compound dLGG isolated from Crassocephalum rabens (Asteraceae) in LPS/D-GaIN-induced fulminant hepatitis were investigated and compared with the hepatoprotective drug, silymarin (SM). Mice were randomly separated into four groups (n=6 per group) for treatments: vehicle; LPS/D-GaIN; 50 mg/kg of silymarin (Post-SM50); and 10 mg/kg dLGG (post-dLGG10), and all treatments were given intraperitoneally. One hour after the mice treated with 500 ng LPS and 250 μL saline containing 25 mg D-GaIN (Huang et al., 2012), the dLGG and silymarin were given intraperitoneally. Besides, the other two groups of mice were treated dLGG or silymarin continuously for three days to perform the protection effect of dLGG against LPS/D-GaIN induced fulminate hepatitis. Eight hours after LPS/D-GaIN injection, blood samples were collected through retro-orbital bleeding, and then all mice were sacrificed to collect blood samples and liver tissues.
as §4
In situ detection of apoptotic cells was conducted according to the manufacturer's protocol (Chemicon). It is using terminal deoxynucleotidyl transferase to work on nucleotide sequence to […] for terminal deoxynucleotidyl transferase-mediated dUTP nick end labeling. Finally, AxioVision software (Carl Zeiss MicroImaging, Inc.) was used to analyze the number of TUNEL-positive cells.
as §5

[4] abbreviates: high dose (CR-EA 50 mg/kg, dLGG 25 mg/kg) 1 hour before 10 mg/kg LPS, serum at 24 hours.
The mark [5] stands for this setting: FIG. 5A, dLGG 10 mg/kg or SM 50 mg/kg i.p. 1 hour after LPS/D-GaIN, blood at 8 hours.

As for `CC/C=C\C/C=C\C/C=C\CCCCCCCC(=O)OC[C@H](CO[C@@H]1O[C@H](CO)[C@H](O)[C@H](O)[C@H]1O)OC(=O)CCCCCCC/C=C\C/C=C\C/C=C\CC` [dLGG, 1,2,di-O-α-linolenoyl-3-O-β-galactopyranosyl-sn-glycerol], in data set [1], the HIF-1α expression result was “down-regulated”. Also, the “depigmentation of B16 melanoma cells at different time points” value with B16 melanoma cells is listed as “significantly depigmentation in a time-dependent manner”. Further, the “expression of tyrosinase (western blot)” value with tyrosinase was “inhibit the expression”. In addition, in data set [2], the harm to mice entry is on record as “harmfulless to mice”. Further, the “expression of MITF (western blot)” value in the data set with MITF is given as “inhibit the expression”. The PPAR-δ expression entry with PPAR-δ is “down-regulated”. The “sepsis-induced acute kidney injury, renal histology (H&E)” value in the data set on LPS-challenged mice (FIG. 8A, pre-treated 1 hour before LPS, simvastatin 10 mg/kg) was “remarkably protective effect”. Also, the “infiltration and activation of macrophages (F4/80 immunohistology staining)” value with LPS-challenged mice (FIG. 8C, pre-treated 1 hour before LPS, simvastatin 10 mg/kg) is “decreased infiltration and activation of macrophages”. Besides, in the data set on LPS-challenged mice (dLGG 25 mg/kg after LPS-challenge, data not shown), the “damages in mice liver, lung and kidney caused by LPS” value was “effectively reduce damages”. Moreover, in the data set on LPS-challenged mice (setting [4]), the “serum ALT decrease” value was found to be 2.3 times, the “serum AST decrease” value is 1.8 times, the “serum IL-6 decrease” value came to 3.5 times and the “serum TNF-α decrease” value came out at 3.0 times. Besides, in data set [3] (setting [5]), the “serum ALT level” value is given as “significantly inhibit” and the “serum AST level” value is on record as “significantly inhibit”. For the same molecule, the “liver histology H&E (infiltration of inflammatory cells into liver lobules, tissue destruction, erythrocyte influx)” value in data set [3] (FIG. 5B, dLGG 10 mg/kg or SM 50 mg/kg i.p. 1 hour after LPS/D-GaIN) was “attenuated”. The “numbers of apoptosis cells, TUNEL positive-stained cells in liver tissue” value in data set [3] (FIG. 5C, dLGG 10 mg/kg i.p. after LPS/D-GaIN) is on record as “significantly decreased”. In addition, the “protection against LPS/D-GaIN-induced fulminant hepatic failure” value in data set [3] (pre-treated 1 or 10 mg/kg 1 hour before LPS/D-GaIN-challenge, data not shown) is recorded as “significant protection effect”.

(Values after patent US10434132B2, “Galactolipids-enriched plant extracts and the uses thereof” (ACADEMIA SINICA, priority 2013, dated 2019).)
